One test deals with human FLAP (Homo sapiens (Human), UniProt P20292). Description: FLAP binding assay (HTRF). Conditions: human FLAP-containing membranes, HTRF format; average of two assay plates, duplicates; read-out: FLAP Binding wild type HTRF Ki. In short, it runs like this:
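Binding of compounds to FLAP read out as HTRF ratio. Values are the mean of two assay plates, each sample run in duplicate per plate.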

For test [1], the system named is leukotriene pathway in human whole blood (LTB4 levels). The test is described as follows: Human whole blood assay (LTB4). It counts as cell-based. Conditions: human whole blood diluted 1:1 in RPMI, stimulated with calcium ionophore A23187; single replicate. The method, boiled down:
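Heparinised human whole blood, diluted 1:1 in RPMI, was pre-incubated with test compounds for 15 min at 37° Celsius, then stimulated with A23187 (7 μg/mL) for 30 min at 37° Celsius. Plasma LTB4 was measured by immunoassay kit; IC50 from 4-parameter fit; single replicate, at least one healthy donor.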

Structures can show the parent of a compound that is named as a salt.

human FLAP, sequence (P20292 whole entry): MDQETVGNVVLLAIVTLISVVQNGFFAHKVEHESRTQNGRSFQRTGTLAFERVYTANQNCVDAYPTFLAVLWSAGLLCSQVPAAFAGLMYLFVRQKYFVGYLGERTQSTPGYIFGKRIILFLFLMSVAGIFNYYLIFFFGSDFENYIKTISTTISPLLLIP

By Ki is commonly meant a measure of affinity in units of concentration, obtained from inhibition or displacement. In general, IC50 refers to the concentration that inhibits the measured activity by half. As to `COc1c(C2CCC2)ccc(-c2cnc(N)nc2)c1F` [Example 159, 5-(4-cyclobutyl-2-fluoro-3-methoxyphenyl)pyrimidin-2-amine], the Ki on human FLAP worked out at 55.7 nM. The IC50 in test [1] came to 3310 nM.
As for `Nc1cnc(-c2ccc(C3CCC3)c(Oc3nccnc3N)c2F)cn1` [Example 258, 3-(3-(5-Aminopyrazin-2-yl)-6-cyclobutyl-2-fluorophenoxy)pyrazin-2-amine], the Ki at human FLAP worked out at 3.8 nM. Also, in test [1], the IC50 was 10.1 nM.
In the case of `N#Cc1ncccc1Oc1c(C2CCC2)ccc(-c2cnc(N)cn2)c1F` [Example 112, 3-[3-(5-Aminopyrazin-2-yl)-6-cyclobutyl-2-fluorophenoxy]pyridine-2-carbonitrile], on human FLAP, the Ki was found to be 14.8 nM. Further, the IC50 in test [1] was determined as 181 nM.
Take `CC(C)Oc1c(C2CCCC2)ccc(-c2cnc(N)cn2)c1F` [Example 213, 5-[4-Cyclopentyl-2-fluoro-3-(1-methylethoxy)phenyl]pyrazin-2-amine]: the Ki at human FLAP was determined as 92.1 nM. The IC50 in test [1] was found to be 1010 nM.
The like results for `COc1cccnc1Oc1c(C2CCC2)ccc(-c2cnc(N)cn2)c1F` [Example 129, 5-{4-Cyclobutyl-2-fluoro-3-[(3-methoxypyridin-2-yl)oxy]phenyl}pyrazin-2-amine] were, in that order, 119 nM and 281 nM.
The like results for `Nc1cnc(-c2ccc(C3CCC3)c(Oc3cc(-c4ccccc4)ncn3)c2F)cn1` [Example 145, 5-{4-Cyclobutyl-2-fluoro-3-[(6-phenylpyrimidin-4-yl)oxy]phenyl}pyrazin-2-amine] were, in that order, 5.4 nM and 177 nM.
Consider `Nc1cnc(-c2ccc(C3CCC3)c(OCc3ccc(S(F)(F)(F)(F)F)cc3)c2F)cn1` [Example 79, 5-(4-Cyclobutyl-2-fluoro-3-{[4-(pentafluoro-lambda~6~- sulfanyl)benzyl]oxy}phenyl)pyrazin-2-amine], for which the Ki at human FLAP was determined as 250 nM. Also, the IC50 in test [1] came to 2230 nM.
In the case of `N#Cc1ccc(COc2c(C3CCC3)ccc(-c3cnc(N)cn3)c2F)cn1` [Example 290, 5-{[3-(5-Aminopyrazin-2-yl)-6-cyclobutyl-2-fluorophenoxy]methyl}pyridine-2-carbonitrile trifluoroacetic acid salt], the Ki on human FLAP is 39.9 nM. In addition, in test [1], the IC50 turned out to be 506 nM.
Taken in the same sequence, the figures for `Nc1cnc(-c2ccc(C3CCC3)c(OCC(O)Cn3nncc3N)c2F)cn1` (racemic) [Example 66, racemic 1-(5-Amino-1H-1,2,3-triazol-1-yl)-3-(3-(5-aminopyrazin-2-yl)-6-cyclobutyl-2-fluorophenoxy)propan-2-ol] were 422 nM and 753 nM.
Taken in the same sequence, the figures for `Nc1cnc(-c2ccc(C3CCC3)c(OCC3CCCO3)c2F)cn1` (centres unmarked) [Example 252, 5-(4-Cyclobutyl-2-fluoro-3-((tetrahydrofuran-2-yl)methoxy)phenyl)pyrazin-2-amine] were 29.6 nM and greater than 1000 nM.
As to `Nc1cnc(-c2ccc(C3CCC3)c(OCC(O)CNc3cnccn3)c2F)cn1` (racemic) [Example 57, racemic 1-(3-(5-Aminopyrazin-2-yl)-6-cyclobutyl-2-fluorophenoxy)-3-(pyrazin-2-ylamino)propan-2-ol], the Ki on human FLAP amounted to 36 nM. Further, the 50% inhibitory concentration (IC50) in test [1] stood at 345 nM.
The like results for `O=C(O)Cc1ccc(COc2c(C3CCC3)ccc(-c3cnc4c(c3)OCCN4)c2F)cc1` [Example 195, (4-{[6-cyclobutyl-3-(3,4-dihydro-2H-pyrido[3,2-b][1,4]oxazin-7-yl)-2-fluorophenoxy]methyl}phenyl)acetic acid] were, in that order, 2.2 nM and 446 nM.
Taken in the same sequence, the figures for `COc1c(C2CCC2)ccc(-c2ncc(N)nc2C#N)c1F` [Example 172, 6-amino-3-(4-cyclobutyl-2-fluoro-3-methoxyphenyl)pyrazine-2-carbonitrile] were 394 nM and 1660 nM.
`NC(=O)c1cccc(COc2c(C3CCC3)ccc(-c3cnc(N)cn3)c2F)c1` [Example 17, 3-{[3-(5-Aminopyrazin-2-yl)-6-cyclobutyl-2-fluorophenoxy]methyl}benzamide]: the Ki on human FLAP came out at 16 nM. Besides, in test [1], the IC50 is 276 nM.
In the case of `Nc1cnc(-c2ccc(C3CCC3)c(OCc3ccccc3C(=O)O)c2F)cn1` [Example 46, 2-{[3-(5-Aminopyrazin-2-yl)-6-cyclobutyl-2-fluorophenoxy]methyl}benzoic acid], the Ki at human FLAP was 8 nM. In addition, in test [1], the IC50 stood at 5620 nM.
With `O=C(O)c1ccc(COc2c(C3CCC3)ccc(-c3cnc4c(c3)OCCN4)c2F)cc1` [Example 196, 4-{[6-Cyclobutyl-3-(3,4-dihydro-2H-pyrido[3,2-b][1,4]oxazin-7-yl)-2-fluorophenoxy]methyl}benzoic acid], the inhibition constant Ki at human FLAP turned out to be 4.1 nM. Further, in test [1], the IC50 was found to be 871 nM.
With `COc1c(C2CCC2)ccc(-c2cnc3c(c2)OCCN3)c1F` [Example 184, 7-(4-cyclobutyl-2-fluoro-3-methoxyphenyl)-3,4-dihydro-2H-pyrido[3,2-b][1,4]oxazine], the Ki on human FLAP came to 14 nM. Moreover, in test [1], the IC50 is 831 nM.
The like results for `Nc1cnc(-c2ccc(C3CCC3)c(OCC(O)Cn3ccnn3)c2F)cn1` (racemic) [Example 63, racemic 1-(3-(5-Aminopyrazin-2-yl)-6-cyclobutyl-2-fluorophenoxy)-3-(1H-1,2,3-triazol-1-yl)propan-2-ol] were, in that order, 120 nM and 212 nM.
Taken in the same sequence, the figures for `Nc1cnc(-c2ccc(C3CCC3)c(OCc3c(F)cccc3F)c2F)cn1` [Example 31, 5-{4-Cyclobutyl-3-[(2,6-difluorobenzyl)oxy]-2-fluorophenyl}pyrazin-2-amine] were 170 nM and 1960 nM.
In the case of `COCc1cc(Oc2c(C3CCC3)ccc(-c3cnc(N)cn3)c2F)nc(N)n1` [Example 142, 4-[3-(5-Aminopyrazin-2-yl)-6-cyclobutyl-2-fluorophenoxy]-6-(methoxymethyl)pyrimidin-2-amine], the Ki at human FLAP stood at 1.7 nM. The IC50 in test [1] turned out to be 18.5 nM.
As for `Nc1cnc(-c2ccc(C3CCC3)c(OCc3ccc(S(F)(F)(F)(F)F)cc3F)c2F)cn1` [Example 78, 5-(4-Cyclobutyl-2-fluoro-3-{[2-fluoro-4-(pentafluoro-lambda~6~- sulfanyl)benzyl]oxy}phenyl)pyrazin-2-amine], the inhibitory constant (Ki) on human FLAP worked out at 173 nM. In addition, the IC50 in test [1] was 1290 nM.
Take `Nc1cnc(-c2ccc(C3CCC3)c(Oc3ccnc(N)n3)c2F)cn1` [Example 130, 4-[3-(5-Aminopyrazin-2-yl)-6-cyclobutyl-2-fluorophenoxy]pyrimidin-2-amine]: the Ki on human FLAP was found to be 3.7 nM. For the same molecule, in test [1], the IC50 turned out to be 84.1 nM.
The like results for `CCOC(=O)c1c(C(F)(F)F)nn(C)c1Oc1c(C2CCC2)ccc(-c2cnc(N)cn2)c1F` [Example 238, Ethyl 5-(3-(5-aminopyrazin-2-yl)-6-cyclobutyl-2-fluorophenoxy)-1-methyl-3-(trifluoromethyl)-1H-pyrazole-4-carboxylate] were, in that order, 155 nM and 571 nM.
For the molecule `Nc1cnc(-c2ccc(C3CCC3)c(OCc3ccc(C(F)(F)F)cc3)c2F)cn1` [Example 1, 5-(4-Cyclobutyl-2-fluoro-3-{[4-(trifluoromethyl)benzyl]oxy}phenyl)-pyrazin-2-amine], the Ki on human FLAP worked out at 286 nM. Also, the IC50 in test [1] stood at 588 nM.
With `COc1cc(Oc2c(C3CCC3)ccc(-c3cnc(N)cn3)c2F)nc(N)n1` [Example 99, 4-[3-(5-Aminopyrazin-2-yl)-6-cyclobutyl-2-fluorophenoxy]-6-methoxypyrimidin-2-amine], the Ki at human FLAP worked out at 6 nM. Besides, in test [1], the IC50 came to 40.7 nM.

(Values after patent US9073876B2, “Flap modulators” (JANSSEN PHARMACEUTICA NV, priority 2013, dated 2015).)
